Consider two compounds from patent publication EP0428105A2, “Use of quinolyl- and isoquinolyloxazole-2-ones for the production of a medicament for the prevention of glycoprotein enveloped virus infectivity” (MERRELL DOW PHARMACEUTICALS INC., priority 1989, dated 1991).

Where a name gives a salt, the structure may show the parent alone.

For test [1], the system named is HIV. The note with it: CD4+ cells, Fields, et al., Nature, Vol. 333, 19 May 1988, cited from earlier work.
Test [2] relates to RF strain of HIV-1. Kind of test: p24 antigen expression from HIV infected T-lymphocytes (C8166 T cell line). In kind it is cell-based. Particulars: C8166 cells; for p24 Antigen: 3 h pretreatment, culture fluid after 3 days. As for the experimental part: Cells (C8166 T cell line) were pretreated with test compounds at appropriate concentrations for 3 hours prior to virus (RF strain of HIV-1) absorption. Low multiplicity of infection was used and virus absorption period was 1 hour at room temperature. the cells were washed X1 in PBS and resuspended in fresh medium containing the appropriate concentrations of test compound. Cells incubated at 37°C and after 3 days culture fluid was assayed for p24 antigen as a measure of viral replication. Because these compounds were insoluble in water as their free base, they had to be taken up in DMSO and therefore a series of DMSO virus controls were needed for comparison.

Test [3] has as its system Moloney murine leukemia virus (MoLV). Put plainly: in vitro XC plaque assay (SC-1 cells infected with MoLV, XC cell overlay, plaques counted). In kind it is cell-based. The note with it: compound added 2 hours before virus; for Mean No. of Foci: control 84 foci. As for the experimental part: This assay was performed according to the method of Rowe et al. (Virology, 1970,42, 1136-39) as previously described by L. Hsu, et al. (J. Virological Methods, 1980, 1, 167-77) and T. L. Bowlin and M. R. Proffitt (J. Interferon Res., 1983, 3(1), 19-31). Mouse SC-1 cells (fibroblast) (10⁵) were seeded into each well of 6-well cluster plates (Costar #3506) in 4 ml Minimum Essential Medium (MEM) with 10% Fetal Calf Serum (FCS). Following an 18 hour incubation period (37°C), Moloney murine leukemia virus (MoLV) was applied at a predetermined titer to give optimal (i.e. countable) numbers of virus plaques. Compounds were added 2 hours prior to addition of the virus. Three days later the culture medium was removed, the SC-1 cell monolayers were exposed to UV irradiation (1800 ergs), and rat XC cells (10⁶) were seeded into each well in 4 ml MEM. Following an additional 3 day incubation (37°C), these cells were fixed with ethyl alcohol (95%) and stained with 0.3% crystal violet. Plaques were then counted under low magnification.

Consider `CC1CNCCN1S(=O)(=O)c1cccc2cnccc12` (stereo not shown) [1,5-isoquinolinesulphonyl-2-methylpiperazine dihydrochloride], for which, in test [1], the “HIV cell surface binding” value is reported as “does not interfere with HIV cell surface binding”. In test [1] (accumulation of virus particles at the cell surface), the viral infectivity entry is recorded as “inhibition of viral infectivity”.

As to `CCCc1[nH]c(=O)oc1-c1ccnc2ccccc12` [Test Compound, 4-propyl-5-(4-quinolinyl)-2(3H)-oxazolone], the “p24 Antigen” value in test [2] (1 µg/ml, vehicle DMSO 0.01%, DMSO control 1027 pg/ml) worked out at 745 pg/mL; in test [2] (10 µg/ml, vehicle DMSO 0.1%, DMSO control 2408 pg/ml) it was 710 pg/mL. Besides, the inhibition (usually the relative decrease from the control value, in per cent) at 1 µg/mL in test [2] (Human immunodeficiency virus 1, 72 h, 1 µg/ml, vehicle DMSO 0.01%, 3 days) was 28%; in test [3] (Murine leukemia virus, SC-1, 1 µg/ml), 88.1%. Besides, at 10 µg/mL the inhibition in test [2] (Human immunodeficiency virus 1, 72 h, 10 µg/ml, vehicle DMSO 0.1%, 3 days) was 71%. Moreover, the “Mean No. of Foci” value was 84 in test [3] (0.10 µg/ml) and 10 in test [3] (1 µg/ml). In test [3] (Murine leukemia virus, SC-1, 0.10 µg/ml), the inhibition at 0.1 µg/mL is 0%.
